Columns and labels:
[1] = Particle size of the granular carbohydrate compounds used; assay type: physicochemical; conditions: granular carbohydrate compound as used
Description: The term “Dav” means an average particle diameter (Dav). In the table, the term “D10” means the particle diameter (D10 value) of the particle at the position of 10% when counted from the smallest size zero (minimum) to 100% (maximum) of the particle diameter in a particle diameter distribution. The term “D50” means a certain particle diameter (D50 value) when amount of a larger side becomes equal to amount of a smaller side of the particle diameters divided into two a powder from the certain particle diameter. The term “D90” means the particle diameter (D90 value) of the particle at the position of 90% when counted from the smallest size zero (minimum) to 100% (maximum) of the particle diameter in the particle diameter distribution. The same definitions shall apply to following tables.

[2] = Particle diameter distribution by dynamic light scattering photon correlation method (Delsa Nano); assay type: physicochemical; conditions: starting organic compound powder before mixing/milling
Description: The term “average particle diameter” used in present specification means a mathematical average diameter (here, defined as the Dav value) in the particle diameter distribution as measured by a dynamic light scattering photon correlation method. The term “50%-diameter” (defined as median diameter or the D50 value) means a certain particle diameter when amount of a larger side becomes equal to amount of a smaller side of the particle diameters divided into two a powder from the certain particle diameter. The term “90%-diameter” (D90 value) means the particle diameter of the particle at the position of 90% when counted from the smallest size zero (minimum) to 100% (maximum) of the particle diameter in the particle diameter distribution as measured by the above-mentioned measurement method. The term “10%-diameter” (D10 value) means the particle diameter of the particle at the position of 10% when counted from the smallest size zero (minimum) to 100% (maximum) of the particle diameter in the particle diameter distribution as measured by the above-mentioned measurement method. […]

Molecule	Particle Size D10 [1]	Particle Size D50 [1]	Particle Size D90 [1]	Particle Size Dav [1]	Particle diameter distribution, D10, before milling [2]	Particle diameter distribution, D50, before milling [2]	Particle diameter distribution, D90, before milling [2]	Particle diameter distribution, Dav (average particle diameter), before milling [2]
O=C[C@H](O)[C@@H](O)[C@H](O[C@@H]1O[C@H](CO)[C@@H](O)[C@H](O)[C@H]1O)[C@H](O)CO [Cellobiose, cellobiose]	7 μm	38 μm	76 μm	41 μm				
OC[C@@H](O)[C@@H](O)CO [Erythritol, erythritol]	63 μm	138 μm	237 μm	147 μm				
O=C(CO)[C@@H](O)[C@H](O)[C@H](O)CO [Fructose, fructose]	158 μm	311 μm	566 μm	339 μm				
O[C@H]1[C@H](O)[C@@H](O)[C@H](O)[C@@H](O)[C@H]1O [Inositol, inositol]	116 μm	247 μm	496 μm	280 μm				
O.OC[C@H]1O[C@@H](O[C@H]2[C@H](O)[C@@H](O)C(O)O[C@@H]2CO)[C@H](O)[C@@H](O)[C@H]1O (stereo partly shown) [Lactose monohydrate, lactose monohydrate]	3 μm	20 μm		45 μm				
OC[C@@H](O)[C@@H](O[C@H]1O[C@H](CO)[C@@H](O)[C@H](O)[C@H]1O)[C@H](O)[C@@H](O)CO [Maltitol, maltitol]	7 μm	30 μm	64 μm	33 μm				
OC[C@@H](O)[C@@H](O)[C@H](O)[C@H](O)CO [Mannitol, D-(−)-mannitol]	24 μm	66 μm	144 μm	79 μm				
OC[C@@H](O)[C@@H](O)[C@H](O)[C@@H](O)CO [Sorbitol, sorbitol]	75 μm	154 μm	249 μm	159 μm				
OC[C@H]1O[C@H](O[C@H]2O[C@H](CO)[C@@H](O)[C@H](O)[C@H]2O)[C@H](O)[C@@H](O)[C@@H]1O [Trehalose, trehalose]	7 μm	20 μm	50 μm	25 μm				

The next lines start with the values.

Particle Size D10 [1]	Particle Size D50 [1]	Particle Size D90 [1]	Particle Size Dav [1]	Particle diameter distribution, D10, before milling [2]	Particle diameter distribution, D50, before milling [2]	Particle diameter distribution, D90, before milling [2]	Particle diameter distribution, Dav (average particle diameter), before milling [2]	Molecule
383 μm	615 μm	912 μm	631 μm					OC[C@@H](O)[C@H](O)[C@@H](O)CO [Xylitol, xylitol]
				2277 nm	6872 nm	22850 nm	10160 nm	CC[C@H]1OC(=O)[C@H](C)[C@@H](O[C@H]2C[C@@](C)(OC)[C@@H](O)[C@H](C)O2)[C@H](C)[C@@H](O[C@@H]2O[C@H](C)C[C@H](N(C)C)[C@H]2O)[C@](C)(OC)C[C@@H](C)C(=O)[C@H](C)[C@@H](O)[C@]1(C)O [clarithromycin powder, clarithromycin]
				1389 nm	2636 nm	5709 nm	3148 nm	CC(=O)[C@@]1(O)CC[C@H]2[C@@H]3C[C@H](C)C4=CC(=O)C=C[C@]4(C)[C@@]3(F)[C@@H](O)C[C@@]21C [fluorometholone powder, fluorometholone]
				4422 nm	15070 nm	33850 nm	17270 nm	COc1cc(/C=C/C(=O)CC(=O)/C=C/c2ccc(O)c(OC)c2)ccc1O [synthetic curcumin powder, curcumin]
16 μm	38 μm	63 μm	38 μm					dextrin

Source: patent publication US9278071B2, “Organic compound nano-powder, method for producing the same and suspension” (Activus Pharma Co., Ltd., priority 2012, dated 2016)
